Results as given in US20240060949A1, “BIOSYSTEMS TO DETECT CHEMICAL CONTAMINANTS” (priority 2020, published 2024).
Like-named read-outs stand apart in the source and are kept apart here.

Tests used:
CYP1A2 and CYP2C19 = assay type: biochemical
Protocol: The bioassay was performed in a 96-well plate. 80 μL of sample is added to wells in triplicate. […] After the preparation, 10 μL of enzyme mixture were added to each plate. After incubating at room temperature 10 μL of substrate mixture (5 μM of substrate EOMCC and 30 μM Vivid® NADP^+ diluted in working buffer) was added. The plate was incubated 30 minutes at 30° C. and when time passed, fluorescence signal was measured with a fluorometric reader, 410 nm and 460 nm were the excitation and emission wavelengths, respectively. A blank sample, buffer solution, was measured at the same time and the reduction of the signal, inhibition of enzyme activity, was calculated and associated with the presence of contaminants.

CYP3A4 [1] = target: T1, CYP3A4 (Homo sapiens, UniProt P08684); assay type: biochemical; details: CYP3A4, DBF substrate; concentration providing 20% inhibition (IC20)
Protocol: (§1) The bioassay was performed in a 96-well plate. 50 μL of a solution containing PAHs or BFRs is added to wells in triplicate. […] After incubating at room temperature 10 μL of substrate mixture (5 μM of substrate (EOMCC for CYP1A2, BOMCC for CYP2B6 or DBF for CYP3A4) and 30 μM Vivid® NADP^+ diluted in working buffer) was added. The plate was incubated 30 minutes at 25° C. and when time passed, fluorescence signal was measured with a fluorometric reader, 410/490 nm and 460/520 nm were the excitation and emission wavelengths, respectively. A blank sample, buffer solution, was measured at the same time and the reduction of the signal, inhibition of enzyme activity, was calculated and associated with the presence of contaminants.

CYP3A4 [2] = target: T1, CYP3A4; assay type: biochemical; details: for Inhibition percentage I (%): lateral flow reader; for Limit of detection: CYP3A4 lateral flow, concentration providing 20% of inhibition, estimated
Protocol: The metabolism of two different fluorescent substrates was used to determine the percent of inhibition of CYP3A4 as response to the contaminant concentrations. The enzymatic reactions were carried out in 96-well plates adding 80 μL of potassium phosphate buffer (100 mM, pH 8.0) or 100 ng/mL of standard solutions in duplicates. Both brominated compounds were prepared in potassium phosphate buffer (100 mM, pH 8.0) and tested as inhibitors of CYP3A4 activity. […] Subsequently, 10 μL of enzyme mixture were added to each well, homogenised and allowed to pre-incubate during 10 minutes at room temperature. Two different substrate mixtures were used in combination with brominated molecules. To evaluate the inhibition promoted by BDE-100, 10 μL of a substrate mixture containing 2 μM of DBF and 30 μM Vivid® NADP+ in potassium phosphate buffer (100 mM, pH8.0), were added to the appropriated wells. The inhibitory effect of HBCD concentration was tested for a substrate mixture, containing 2 μM of DBOMF and 30 μM Vivid® NADP+ prepared in potassium phosphate buffer (100 mM, pH8.0), from which 10 μL were added to the appropriated wells. After the addition of the respective substrate probes, the plate was newly incubated at 25° C. for 60 minutes. The resulting reaction broths were diluted 10 and 20 times in buffer, for respectively DBF and BDE-100, and for DBOMF and HBCD reactions. Finally, 1.5 μL of diluted broths were pipetted as a line onto nitrocellulose membranes and the fluorometric measurements carried out at a lateral flow reader (ESEQuant LR3, QIAGEN) with a fluorometric channel of 470 nm and 520 nm as excitation and emission wavelengths, respectively. A blank sample, buffer solution, was measured at the same time and the reduction of the signal, inhibition of enzyme activity, was calculated and associated with the presence of each BDE, as shown in Table 5.
Considering the signal intensity developed for different levels of the contaminant molecules, the concentration providing 20% of inhibition was selected as limit of detection, estimated to be 36 ng/mL and 14 ng/mL for BDE-100 and HBCD, respectively.

CYP2B10 = CYP2B10 (Mus musculus, UniProt P12791); details: CYP2B10, 3 μM BOMCC; concentration that induces 20% inhibition (Table 8)
CYP3A4 [3] = target: T1, CYP3A4; details: pH 8
CYP2B6 [4] = target: T2, CYP2B6 (Homo sapiens, UniProt P20813); details: pH 7.4
CYP2B6 [5] = target: T2, CYP2B6; assay type: biochemical
Protocol: as §1

CYP3A4 [6] = target: T1, CYP3A4; assay type: biochemical; details: CYP3A4 electrochemical biosensor, 50 μM progesterone, estimated
Protocol: The working electrodes (WE) of screen-printed carbon electrodes (SPCE) (C110, from Methrom-Dropsens), were modified with 3 μL suspension of 1 mg/mL of single-walled carbon nanotubes. After chloroform evaporation, 5 μL of a 0.08 nmol/mL solution of CYP3A4 (recombinant, expressed in E. Coli from Sigma-Aldrich) was deposited onto the modified WE surface and incubated overnight at 4° C. 100 mM of potassium phosphate buffer saline (PBS) at pH 8.0, containing 50 mM of potassium chloride, was used to prepare the standards, as well as a supporting electrolyte for the electrochemical measurements. Aliquots (60 μL) of 50 μM progesterone solutions containing 0, 50, 100, 200 and 300 ng/mL of HBCD, were placed onto the working area of the SPCE by drop-casting, incubated for 2 minutes at room temperature and the electrochemical measurements performed. For each sample, one cyclic voltammetric scan was carried out, sweeping the potential from −0.75 V to 0.30 V at 0.02 V/s. The peak height of the cathodic peaks generated near to −0.55 V was registered and HBCD presence, calculated using as reference the peak of the blank assay (buffer solution). The electrochemical signal registered at CYP3A4-based biosensor, respond to the concentration of HBCD, allowing to establish the I (%) values for different concentrations of this compound (FIG. 1). Limit of detection was estimated to be 42.8 ng/mL for HBCD.

[7] = CYP2B6, BOMCC substrate, concentration providing 20% inhibition (IC20)

T2 sequence (P20813 whole entry): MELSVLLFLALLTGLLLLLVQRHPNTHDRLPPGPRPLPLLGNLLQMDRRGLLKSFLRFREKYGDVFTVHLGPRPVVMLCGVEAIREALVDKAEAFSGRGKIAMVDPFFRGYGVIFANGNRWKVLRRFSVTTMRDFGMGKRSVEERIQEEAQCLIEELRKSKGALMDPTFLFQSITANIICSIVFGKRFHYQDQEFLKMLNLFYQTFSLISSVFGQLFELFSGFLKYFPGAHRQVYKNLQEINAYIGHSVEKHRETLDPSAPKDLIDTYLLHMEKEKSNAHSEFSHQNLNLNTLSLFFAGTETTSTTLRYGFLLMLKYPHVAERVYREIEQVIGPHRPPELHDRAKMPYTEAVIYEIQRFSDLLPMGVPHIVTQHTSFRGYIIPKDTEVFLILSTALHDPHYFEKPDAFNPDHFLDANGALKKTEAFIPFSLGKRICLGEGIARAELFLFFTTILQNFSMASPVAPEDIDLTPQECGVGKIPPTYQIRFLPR
T1 sequence (P08684 whole entry): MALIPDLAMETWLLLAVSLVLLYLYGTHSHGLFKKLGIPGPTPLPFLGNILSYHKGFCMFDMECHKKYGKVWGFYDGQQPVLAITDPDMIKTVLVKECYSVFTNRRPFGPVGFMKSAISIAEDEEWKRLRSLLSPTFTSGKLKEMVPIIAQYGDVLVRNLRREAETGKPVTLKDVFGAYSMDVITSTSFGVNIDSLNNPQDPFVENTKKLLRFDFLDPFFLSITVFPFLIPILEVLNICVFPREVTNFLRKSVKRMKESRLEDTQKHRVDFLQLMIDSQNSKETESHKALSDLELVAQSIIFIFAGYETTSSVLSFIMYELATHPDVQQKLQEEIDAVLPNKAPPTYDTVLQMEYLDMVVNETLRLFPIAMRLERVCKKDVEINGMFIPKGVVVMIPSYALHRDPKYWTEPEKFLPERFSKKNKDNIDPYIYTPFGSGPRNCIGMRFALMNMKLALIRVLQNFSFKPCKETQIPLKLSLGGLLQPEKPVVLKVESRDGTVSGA
Sequence of CYP2B10 (P12791 whole entry): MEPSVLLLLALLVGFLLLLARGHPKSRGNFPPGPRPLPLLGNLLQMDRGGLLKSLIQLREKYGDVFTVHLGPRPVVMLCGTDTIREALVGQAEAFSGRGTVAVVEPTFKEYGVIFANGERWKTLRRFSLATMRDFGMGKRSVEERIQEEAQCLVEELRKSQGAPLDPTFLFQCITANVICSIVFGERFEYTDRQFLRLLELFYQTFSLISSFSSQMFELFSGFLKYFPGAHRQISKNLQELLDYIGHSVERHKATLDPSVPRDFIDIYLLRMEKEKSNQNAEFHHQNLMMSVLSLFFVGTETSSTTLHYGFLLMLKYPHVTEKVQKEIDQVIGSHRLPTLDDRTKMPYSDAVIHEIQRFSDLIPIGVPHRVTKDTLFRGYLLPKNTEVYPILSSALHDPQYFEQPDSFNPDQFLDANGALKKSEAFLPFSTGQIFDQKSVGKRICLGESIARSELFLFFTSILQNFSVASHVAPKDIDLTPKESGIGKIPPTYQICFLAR

## 13,19-didesmethyl C spirolide
CYP1A2 and CYP2C19
  Limit of detection: 10 µg/L

## C=C(C[C@@]12C[C@@H](C)C[C@H](O1)[C@H]1O[C@]3(C[C@H]1O2)NC[C@H](C)C[C@@H]3C)[C@H]1O[C@@](O)([C@@H](O)[C@@H]2C[C@H]3O[C@@]4(CC[C@]5(CC=C[C@@H](/C=C/CCC(=O)O)O5)O4)[C@H](C)C[C@H]3O2)[C@H](C)C[C@@H]1C [Azaspiracid-1]
CYP1A2 and CYP2C19; CYP1A2 and CYP2C19, 5 μM EOMCC, concentration that induces 20% inhibition
  Limit of detection: 3 µg/L

## Brc1ccc(Oc2ccc(Br)cc2Br)cc1 [BDE-28, 2,4,4′-Tribromodiphenyl ether]
CYP3A4 [1]
  Limits of detection: 100 ng/mL

## Brc1ccc(Oc2ccc(Br)cc2Br)c(Br)c1 [BDE-47, 2,2′,4,4′-Tetrabromodiphenyl ether]
CYP3A4 [1]
  Limits of detection: 5 ng/mL

## Brc1ccc(Oc2cc(Br)c(Br)cc2Br)c(Br)c1 [BDE-99, 2,2′,4,4′,5-Pentabromodiphenyl ether]
CYP3A4 [1]
  Limits of detection: 100 ng/mL

## Brc1ccc(Oc2c(Br)cc(Br)cc2Br)c(Br)c1 [BDE-100, 2,2′,4,4′,6-Pentabromodiphenyl ether]
CYP3A4 [1]
  Limits of detection: 5 ng/mL
CYP3A4 [2]; CYP3A4, 2 μM DBF, 100 ng/ml contaminant
  Inhibition percentage I (%): 55.4%
CYP3A4 [2]; DBF substrate
  Limit of detection: 36 ng/mL

## Brc1cc(Br)c(Oc2cc(Br)c(Br)cc2Br)cc1Br [BDE-153, 2,2′,4,4′,5,5′-Hexabromodiphenyl ether]
CYP3A4 [1]
  Limits of detection: 5 ng/mL

## Brc1cc(Br)c(Oc2cc(Br)c(Br)cc2Br)c(Br)c1 [BDE-154, 2,2′,4,4′,5,6′-Hexabromodiphenyl ether]
CYP3A4 [1]
  Limits of detection: 5 ng/mL

## Brc1c(Br)c(Br)c(Oc2c(Br)c(Br)c(Br)c(Br)c2Br)c(Br)c1Br [BDE-209, Decabromodiphenyl ether]
CYP3A4 [1]
  Limits of detection: 10 ng/mL

## [CH3][Hg][Cl] [Methylmercury]
CYP2B10
  Limits of detection CYP2B10: 44.3 ng/mL

## N[C@@H](CCC(=O)O)C(=O)[O-].[Na+] [Monosodium glutamate]
CYP3A4 [3]
  Limits of detection CYP3A4: 3.6 mg/mL

## O=C([O-])c1ccccc1.[Na+] [Sodium Benzoate]
CYP2B10
  Limits of detection CYP2B10: 3.2e+06 ng/mL

## O=NO [Sodium Nitrite]
CYP2B6 [4]
  Limits of detection CYP2B6: 2.3 mg/mL

## C=CCC(=C)/C=C/[C@@](C)(O)[C@H]1O[C@@H]2C[C@@H]3O[C@@H]4C[C@@H]5O[C@@H]6C[C@@H]7O[C@@H]8C[C@@H]9O[C@@H]%10C[C@@H]%11O[C@](C)(CCOS(=O)(=O)O)[C@@H](OS(=O)(=O)O)C[C@H]%11O[C@H]%10C[C@H]9O[C@H]8CC[C@@]7(C)O[C@@]6(C)CC[C@H](C)[C@H]5O[C@H]4C[C@@]3(C)O[C@H]2CC1=C [Yessotoxin]
CYP1A2 and CYP2C19; human
  Limit of detection: 45 µg/L

## c1ccc2cc3c(ccc4ccccc43)cc2c1 [benz(a)anthracene (BaA), benz(a)anthracene]
CYP2B6 [5]; human
  Limit of detection: 5 µg/L

## c1ccc2c(c1)cc1ccc3cccc4ccc2c1c34 [benzo(a)pyrene (BaP), benzo(a)pyrene]
CYP2B6 [5]; [7]
  Limit of detection: 15 µg/L

## c1ccc2c(c1)-c1cccc3c1c-2cc1ccccc13 [benzo(b)fluoranthene (BbF), benzo(b)fluoranthene]
CYP2B6 [5]; [7]
  Limit of detection: 20 µg/L

## c1ccc2c(c1)ccc1c3ccccc3ccc21 [chrysene (Chrys), chrysene]
CYP2B6 [5]; [7]
  Limit of detection: 10 µg/L

## Hexabromocyclododecane [HBCD]
CYP3A4 [6]
  Limit of detection: 42.8 ng/mL
CYP3A4 [2]; CYP3A4, 2 μM DBOMF, 50 ng/mL contaminant
  Inhibition percentage I (%): 69.8%
CYP3A4 [2]; CYP3A4, 2 μM DBOMF, 100 ng/mL contaminant
  Inhibition percentage I (%): 84.3%
CYP3A4 [2]; DBOMF substrate
  Limit of detection: 14 ng/mL
